This data set in a line: gradient 5% acetonitrile 3 min, to 50% in 2 min, to 85% in 15 min, held 3 min, 100 µL/min. The note with it: column: Zorbax Extend-C18 2.1 x 50 mm; eluents: water / acetonitrile, 0.1% formic acid. The gist of the method: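 Pure standards were analyzed in mixtures of ~100 molecules using HPLC coupled to a quadrupole time-of-flight mass spectrometer, in both positive and negative ionization mode. Separation used a Zorbax Extend-C18 column (2.1 × 50 mm, 1.8 μm) at 100 μL/min, with water and acetonitrile each containing 0.1% formic acid. Dead and dwell volumes were 40 μL and 900 μL, and data were collected over 3 months. Retention time was read from computationally picked adduct peaks, each inspected manually.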
Turning to `CC(Oc1cccc(Cl)c1)c1nc(-c2ccc3c(c2)nnn3CCC(=O)N2CCCC2)no1` (stereo not drawn), the RP-LC retention time was found to be 1010 s.
As for `Cc1csc(-c2cc(S(=O)(=O)NC(C)C)cn2CC(=O)N2CCCC2)n1`, the figure is 769 s.
As for `O=C(Cn1cc(S(=O)(=O)N2CCCCC2)ccc1=O)N1CCCc2ccccc21`, the figure is 846 s; as for `Cc1ccc(-c2ncn(C3CCCCC3)c2-c2ccc(C(=O)N3CCN(c4ncccn4)CC3)o2)cc1`, 748 s.
To `Cc1nc(-c2noc(-c3ccncc3)n2)cn1CC(=O)Nc1cccc(Cl)c1` belongs 760 s; to `O=C(NCCn1c(-c2ccncc2)nc2cccnc21)Nc1cccc(Cl)c1`, 645 s.
In turn, `Cc1cc(NC(=O)C2CCCN(c3nccnc3Oc3ccccc3)C2)ccc1Br` (stereo not drawn) displayed an RP-LC retention time of 989 s.
As for `CC(C)Cc1ccc(S(=O)(=O)N(C)CC2CCOCC2)cc1`, the figure is 1010 s.
To `Cc1ccc(CNC(=O)c2nnc(-c3ccc(S(=O)(=O)N(C)C)cc3)o2)cc1` belongs 892 s; to `CCNC(=O)c1c2c(nc3ccc(F)cc13)CCC2`, 613 s; to `CCC(CC)C(=O)N1CCN(c2ccc(=O)n(-c3ccc(Cl)cc3)n2)CC1`, 887 s.
As for `O=C(NC1CCCCC1)c1cn(-c2cc(-c3nc(C4CC4)no3)ccn2)cn1`, the figure is 961 s; as for `CCOC(=O)C(C)Sc1nnc(NC(=O)Cc2ccc(OC)cc2)s1` (stereo not drawn), 806 s; as for `COCc1noc(C2CCCCN2C(=O)c2cnccn2)n1` (stereo not drawn), 596 s.
The compound `Cc1ccc(-c2cc(N3CCN(C(=O)c4ccc(C)c(C)c4)CC3)ncn2)cc1` showed an RP-LC retention time of 736 s.
As for `COc1ccc(OC)c(NC(=O)N2CCC(N3CCN(Cc4ccccc4)C(=O)C3=O)CC2)c1`, the figure is 746 s.
As for `CC1CCCN(c2nc(=O)n(CC(=O)Nc3ccc(F)cc3)c3ccccc23)C1` (stereo not drawn), the figure is 841 s.
To `Cc1cc(C)c(S(=O)(=O)N2CC(F)(F)C[C@H]2COc2cccnc2)c(C)c1` belongs 834 s; to `O=C(Cn1cnc2c(-c3ccc(Cl)cc3)csc2c1=O)N1CCCC1`, 838 s.
As to `COc1ccc(NC(=O)C2CCCN(c3nc4c(s3)c(C)nn4-c3ccccc3)C2)cc1Cl` (stereo not drawn), the RP-LC retention time is 1190 s.
To `CCCc1cc(N2CCN(C(=O)c3ccc(F)cc3)CC2)nc2nncn12` belongs 620 s; to `Cc1ccc(-c2noc(C3CC3)n2)cc1S(=O)(=O)N1CCC(C(=O)NC2CC2)CC1`, 836 s.
To `Cc1ccc(NC(=O)N2CCCC2c2nncn2C2CCCC2)c(C)c1` (stereo not drawn) belongs 692 s; to `COc1cccc(N2C=C(C(=O)N3CCCC3)S(=O)(=O)c3ccc(F)cc32)c1`, 819 s.
The compound `COc1ccc(CCC(=O)N2CCCC2c2c(C)noc2C)cc1` (stereo not drawn) registered an RP-LC retention time of 868 s.
As for `CC(CNC(=O)CCS(=O)(=O)c1ccc2c(c1)CCN2C(=O)C1CC1)c1ccccc1` (stereo not drawn), the figure is 840 s.
As for `CCOC(=O)C1CCN(C(=O)Cn2nc(C)c3sc(-c4ccccc4)nc3c2=O)CC1`, the figure is 842 s; as for `COC(=O)c1ccc(Cl)cc1NC(=O)NCCCn1c(C(F)(F)F)nc2cccnc21`, 1020 s.
In turn, `C[C@H](C(=O)O)c1cccc(C(=O)c2ccccc2)c1` yielded an RP-LC retention time of 866 s.
As for `Fc1ccc(CN(C2=NCCN2)c2c(Cl)cccc2Cl)cc1`, the figure is 760 s; as for `CCOC(=O)Cc1csc(NC(=O)c2cc(=O)c3ccccc3o2)n1`, 754 s; as for `CC(C)(C)n1nnnc1C1CC2(CCOCC2)C(=O)N1Cc1ccccc1F` (stereo not drawn), 756 s.
As for `COc1ccc2cc(C(=O)N3CCC(CC(=O)N4CCN(c5ccccn5)CC4)CC3)[nH]c2c1`, the figure is 623 s; as for `COc1ccc(-c2nnc(CC(=O)NCC3CC3)o2)cc1`, 732 s.
For `Cc1ccc2nc(-c3ccc(O)cc3)c(Nc3ccc4c(c3)OCCO4)n2c1`, the RP-LC retention time was 646 s.
To `Cc1cccc(OCc2nc(C)c(C(=O)Nc3nc(-c4ccc(C)c(C)c4)cs3)s2)c1` belongs 1410 s; to `COC(=O)c1cc(S(=O)(=O)N2CCCC2C(=O)Nc2nc(C)cs2)cn1C` (stereo not drawn), 791 s; to `NC(=O)c1cccc2[nH]c(-c3ccc(C4CCCN4)cc3F)nc12` (stereo not drawn), 621 s.
Take `O=S(=O)(c1ccc(Cl)cc1)N1CCC2(CC1)NCCN=C2NCc1ccccc1F`: the RP-LC retention time was 730 s.
To `Cc1cc(S(=O)(=O)C(CNC(=O)c2cccs2)c2ccco2)ccc1F` (stereo not drawn) belongs 815 s; to `Cc1ccc2nc(-c3cccc(Br)c3)c(C)c(C(=O)O)c2c1`, 694 s; to `O=C(NC1CC1)C1CCN(Cc2cc3ccccc3n2Cc2ccc(Cl)cc2)CC1`, 717 s.
For `O=C(NCc1ccc2c(c1)OCO2)c1ccc2c(c1)CC(=O)N2Cc1ccc(F)cc1`, the RP-LC retention time amounted to 847 s.
The compound `c1cc(CN2CC(Oc3ccc(-c4noc(C5CC5)n4)cc3)C2)cs1` registered an RP-LC retention time of 700 s.
As for `Cc1nn(-c2ccc(C(=O)NCc3ccc4c(c3)OCO4)cc2)c2c1C(=O)CCC2`, the figure is 780 s; as for `Cc1cccc(Cn2nc3ccc(S(=O)(=O)N4CCCC4)cn3c2=O)c1`, 881 s; as for `Cc1cc(N2CCC(NC(=O)Nc3ccc(Cl)cc3)C2=O)ccc1F` (stereo not drawn), 920 s.
As for `CC(C)Cc1noc(C2(F)CCN(S(=O)(=O)c3ccc(Cl)c(Cl)c3)CC2)n1`, the figure is 1300 s.
As for `CSc1ccc(-c2nc3cnccn3c2Nc2ccc(C(=O)NC(C)C)cc2)cc1`, the figure is 745 s; as for `CCC(C)N(CC(=O)N1CCc2sccc2C1COc1ccccc1C)C(=O)COC` (stereo not drawn), 942 s; as for `CCC(C)C(=O)NC1CCN(C2=NS(=O)(=O)C(c3ccc(C(C)C)cc3)=C2C)CC1` (stereo not drawn), 962 s.
For the compound `CSc1ccc(-c2nc3cnccn3c2Nc2cccc(C(=O)N3CCCCC3)c2)cc1`, the RP-LC retention time was determined as 807 s.
As to `CC(C)NC(=O)N1CCc2c(c(-c3nc(Cc4ccccc4)no3)nn2C)C1`, the RP-LC retention time turned out to be 748 s.
As for `O=C(c1cc(F)ccc1F)N1CCN(C(=O)c2nnn3c2COC(c2ccc(Cl)cc2)C3)CC1` (stereo not drawn), the figure is 937 s.
As for `Cc1oc(C(C)C)nc1C(=O)Nc1ccc(Cl)cc1`, the figure is 1150 s.
The compound `Cc1cccc(C(=O)N2CCC3(CC2)NC(=O)c2ccc(F)cc2N3C)c1` came in with an RP-LC retention time of 763 s.
As for `O=C(CN1C(=O)COc2ccc(C(=O)N3CCCC3)cc21)Nc1ccccc1F`, the RP-LC retention time was determined as 694 s.
`CC(C)N1C(=O)C2(CCCCC2)C1C(=O)N1CCOCC1` (stereo not drawn) had an RP-LC retention time of 633 s.
`COc1ccc(/C=C/c2nc(C#N)c(NCCCN(C)C)o2)cc1OC` registered an RP-LC retention time of 629 s.
In the case of `COc1cc(OC)c(NC(=O)NC2CCN(c3ccc(C)cc3)C2=O)cc1Cl` (stereo not drawn), the RP-LC retention time stood at 873 s.
As for `O=S(=O)(c1cccs1)N1CCN(c2ncccn2)CC1`, the figure is 754 s; as for `CN(C(=O)Cc1nnc2cc(-c3nc(C4CC4)no3)ccn12)C1CCCCC1`, 1010 s.
As for `CC(NC(=O)c1ccc2c(c1)nc1n2CCN(Cc2ccccc2)C1=O)c1ccccn1` (stereo not drawn), the figure is 622 s; as for `CN(CCCNC(=O)C1CCc2nc(N3CCCCC3)ncc2C1)c1ccccc1` (stereo not drawn), 793 s.
As for `CCOC(=O)c1c(C)oc2nc(C)nc(N3CCN(c4ccc(C(C)=O)cc4)CC3)c12`, the figure is 642 s.
As for `CCOC(=O)N1CCc2c(sc(NC(=O)C3CC3)c2-c2nc3ccccc3s2)C1`, the RP-LC retention time amounted to 905 s.
As for `Cc1ccc(CNC(=O)c2c(C)oc3ccn(C)c(=O)c23)cc1`, the figure is 919 s; as for `Cn1cc(C2=CCN(S(=O)(=O)c3cccc4cccnc34)CC2)c2cccnc21`, 889 s.
To `COCc1cc(=O)n(Cc2cccc(OC)c2)c(N2CCCC2)n1` belongs 764 s; to `CN1CCN(c2ncncc2N2CCC(C(=O)N3CCCCC3)CC2)CC1`, 557 s.
As for `COCCn1cc(C(=O)Nc2cccc(Cl)c2)c2nn(-c3ccccc3)c(=O)c-2c1`, the figure is 1050 s.
`CCCN1CCN(C(=O)C2CCN(c3cnn(CCC)c(=O)c3)CC2)CC1` returned an RP-LC retention time of 570 s.
As for `O=C(Cn1cccc1-c1nc(-c2ccc3c(c2)OCO3)no1)NCc1ccco1`, the figure is 906 s.
To `O=C(NCC1CCCO1)C1CCN(S(=O)(=O)c2cc(-c3noc(C4CCC4)n3)cs2)CC1` (stereo not drawn) belongs 858 s; to `O=C(Cc1csc2nc(-c3ccccc3)cn12)Nc1ccc2c(c1)OCCO2`, 744 s; to `Cc1nc(-c2cc(S(=O)(=O)NCc3cc(F)cc(F)c3)c(C)s2)cs1`, 994 s.
`COc1ccc(Cl)cc1NC(=O)N1CCC(C(=O)Nc2cc(C)on2)CC1` returned an RP-LC retention time of 645 s.
For the compound `COc1ccc(CC(=O)N2CCCC2c2nc(-c3ccc(OC)c(OC)c3)no2)cc1Cl` (stereo not drawn), the RP-LC retention time turned out to be 911 s.

For the origin of these results see the METLIN SMRT retention time set (Domingo-Almenara et al. 2019).
